Legend:
human GHSR = molecular target: T1, human GHSR (Homo sapiens, UniProt Q92847); assay: Agonistic activity on human GHSR in human GHSR/CHO cells (FLIPR calcium); type: cell-based; conditions: human GHSR/CHO stable transformant cells, Fluo-4 FLIPR
T1 construct: expressed in transfected cells
Procedure: This method is used for determining the agonistic activity effect of the compound in the present invention on human GHSR protein expressed in human GHSR/CHO stable transformant cells.
Preparation of buffer solution: HBSS (1X): HEPES (1M)=49:1, 0.5% BSA added.
Human GHSR/CHO containing stable transformant cells were inoculated in a 384-well plate, a cell plate was taken out after overnight, the culture medium was removed, and 20 μL of buffer solution was slowly added in each well, then 20 μL of 2X Fluo-4 Direct™ No-wash Loading Buffer was added in each well. The cell plate was incubated in an incubator containing 5% of CO2 at 37° C. for 50 min, and the cell plate was taken out and placed at room temperature for 10 min. 30 μL of buffer solution was added to each well in the compound plate; an additional buffer solution plate was prepared, and 30 μL of buffer solution was added to each well. […] 10 μL of buffer solution was transferred to the cell plate, the fluorescence signal values were read. 10 μL of compound was transferred to the cell plate, the fluorescence signal values were read. The maximum-minimum values from the 91st signal point to the 230th signal point were calculated through the FLIPR program. The EC50 value of the compound could be calculated by the software using the fluorescence value corresponding to the different concentrations.

in vitro = conditions: human, Caco-2, pH 7.4
Procedure: A transport buffer solution in the study was HBSS containing 10.0 mM of HEPSS, and had pH of 7.40±0.05. The compound to be tested was subjected to bidirectional test at 2.00 μM, and the final concentration of DMSO was required to be less than 1%. In a CO2 incubator at 37±1° C., the cell plate was stood and incubated for 2 h under CO2 at 5% […] and saturated humidity. After mixing all samples with acetonitrile containing internal standard, the mixture was centrifuged at 3200×g for 10 min. The compound was tested, 100 μL of supernatant was diluted with 100 μL of ultrapure water for LC-MS/MS analysis. The concentration of the test compound and a control compound (Digoxin as a model verification compound and ibutamoren as a positive control) in a donor solution and a receiver solution was quantified by an LC-MS/MS method using the peak area ratio of the analyte/internal standard. After transport determination, a lucifer yellow exclusion determination was carried out to determine the integrity of the Caco-2 cell monolayer.

T1 sequence (Q92847 whole entry): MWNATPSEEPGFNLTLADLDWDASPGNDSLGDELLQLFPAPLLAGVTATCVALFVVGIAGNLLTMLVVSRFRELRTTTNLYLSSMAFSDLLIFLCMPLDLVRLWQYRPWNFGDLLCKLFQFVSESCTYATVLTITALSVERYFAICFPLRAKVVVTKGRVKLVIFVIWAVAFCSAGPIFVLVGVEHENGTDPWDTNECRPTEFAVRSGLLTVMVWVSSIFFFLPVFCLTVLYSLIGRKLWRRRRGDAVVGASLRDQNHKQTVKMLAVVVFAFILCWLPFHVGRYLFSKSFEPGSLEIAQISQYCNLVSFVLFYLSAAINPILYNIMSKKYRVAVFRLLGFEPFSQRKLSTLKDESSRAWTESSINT

For `CC(OC(=O)NC(C)(C)C(=O)N[C@H](COCc1ccccc1)C(=O)N1CCC2(CC1)CN(S(C)(=O)=O)c1ccccc12)OC(=O)C(C)C` (stereo partly drawn) [Compound 1e, (4R)-7,7-dimethyl-4-(1-(methylsulfonyl)spiro[indoline-3,4′-piperidine]-1′-carbonyl)-6,9-dioxo-1-phenyl-2,10-dioxa-5,8-diazadodecane-11-ylisobutyrate], the EC50 (human GHSR) was 0.0146 µM, the Papp A→B at 2 h, 2 μM (in vitro) was 0.0518 ×10⁻⁶ cm/s and the Papp B→A at 2 h, 2 μM (in vitro) was 8.8 ×10⁻⁶ cm/s. The efflux ratio at 2 h, 2 μM (in vitro) was 170.

Source: US20260226054A1, “CRYSTAL FORM AND AMORPHOUS SUBSTANCE OF INDOLINE SPIRO COMPOUND, AND PREPARATION METHOD THEREFOR AND USE THEREOF” (CHANGCHUN GENESCIENCE PHARMACEUTICAL CO., LTD., priority 2022, published 2026)
